Patent US9908895B2, “Tricyclic fused thiophene derivatives as JAK inhibitors” (Incyte Corporation, priority 2012, dated 2018)

These compounds were tested on human JAK1 (assay: In vitro JAK kinase assay (HTRF), JAK1). Details: ratio of JAK2 IC50 to JAK1 IC50 at 1 mM ATP.
Format: biochemical
Procedure: Compounds herein were tested for inhibitory activity of JAK targets according to the following in vitro assay described in Park et al., Analytical Biochemistry 1999, 269, 94-104. The catalytic domains of human JAK1 (a.a. 837-1142), JAK2 (a.a. 828-1132) and JAK3 (a.a. 781-1124) were expressed using baculovirus in insect cells and purified. The catalytic activity of JAK1, JAK2 or JAK3 was assayed by measuring the phosphorylation of a biotinylated peptide. The phosphorylated peptide was detected by homogenous time resolved fluorescence (HTRF). IC50s of compounds were measured for each kinase in the 40 μL reactions that contain the enzyme, ATP and 500 nM peptide in 50 mM Tris (pH 7.8) buffer with 100 mM NaCl, 5 mM DTT, and 0.1 mg/mL (0.01%) BSA. For the 1 mM IC50 measurements, ATP concentration in the reactions was 1 mM. Reactions were carried out at room temperature for 1 hour and then stopped with 20 μL 45 mM EDTA, 300 nM SA-APC, 6 nM Eu-Py20 in assay buffer (Perkin Elmer, Boston, Mass.). Binding to the Europium labeled antibody took place for 40 minutes and HTRF signal was measured on a PHERA star plate reader (BMG, Cary, N.C.). The Example compounds were each tested in the Example A assay (see Table 1 for data for the compounds of the examples as tested by the assay of Example A at 1 mM ATP).

| Compound | JAK2/JAK1 |
| --- | --- |
| CC(N)c1nc2cnc3ccsc3c2n1[C@H]1CC[C@H](CC#N)OC1.O=C(O)C(F)(F)F (stereo partly drawn) [Example 68, {(2R,5S)-5-[2-(1-Aminoethyl)-1H-imidazo[4,5-d]thieno[3,2-b]pyridin-1-yl]tetrahydro-2H-pyran-2-yl}acetonitrile trifluoroacetate] | >10 |
| CC(=O)NC(C)c1nc2cnc3ccsc3c2n1[C@H]1CC[C@H](CC#N)OC1 (stereo partly drawn) [Example 69, N-(1-{1-[(3S,6R)-6-(Cyanomethyl)tetrahydro-2H-pyran-3-yl]-1H-imidazo[4,5-d]thieno[3,2-b]pyridin-2-yl}ethyl)acetamide] | >10 |
| CNC(C)c1nc2cnc3ccsc3c2n1[C@H]1CC[C@H](CC#N)OC1 (stereo partly drawn) [Example 70, ((2R,5S)-5-{2-[1-(Methylamino)ethyl]-1H-imidazo[4,5-d]thieno[3,2-b]pyridin-1-yl}tetrahydro-2H-pyran-2-yl)acetonitrile] | >10 |
| CC(F)c1nc2cnc3ccsc3c2n1[C@H]1CC[C@H](CC#N)OC1 (stereo partly drawn) [Example 71, {(2R,5S)-5-[2-(1-Fluoroethyl)-1H-imidazo[4,5-d]thieno[3,2-b]pyridin-1-yl]tetrahydro-2H-pyran-2-yl}acetonitrile] | >10 |
| N#CCc1nc2cnc3ccsc3c2n1[C@H]1CC[C@H](CC#N)OC1 [Example 73, {(2R,5S)-5-[2-(Cyanomethyl)-1H-imidazo[4,5-d]thieno[3,2-b]pyridin-1-yl]tetrahydro-2H-pyran-2-yl}acetonitrile] | >10 |
| N#CCc1nc2cnc3ccsc3c2n1[C@H]1CC[C@@H](CC#N)OC1 [Example 74, {(2S,5S)-5-[2-(Cyanomethyl)-1H-imidazo[4,5-d]thieno[3,2-b]pyridin-1-yl]tetrahydro-2H-pyran-2-yl}acetonitrile] | >10 |
| C[C@@H](O)c1nc2cnc3ccsc3c2n1[C@H]1CC[C@H](CNS(C)(=O)=O)OC1 [Example 75, N-[((2R,5S)-5-{2-[(1R)-1-Hydroxyethyl]-1H-imidazo[4,5-d]thieno[3,2-b]pyridin-1-yl}tetrahydro-2H-pyran-2-yl)methyl]methanesulfonamide] | >10 |
| COC(=O)NC[C@H]1CC[C@H](n2c(CC#N)nc3cnc4ccsc4c32)CC1 [Example 86, Methyl({trans-4-[2-(cyanomethyl)-1H-imidazo[4,5-d]thieno[3,2-b]pyridin-1-yl]cyclohexyl}methyl)carbamate] | >10 |
| CCOC(=O)NC[C@H]1CC[C@H](n2c(CC#N)nc3cnc4ccsc4c32)CC1 [Example 87, Ethyl({trans-4-[2-(cyanomethyl)-1H-imidazo[4,5-d]thieno[3,2-b]pyridin-1-yl]cyclohexyl}methyl)carbamate] | >10 |
| CCC(=O)NC[C@H]1CC[C@H](n2c(CC#N)nc3cnc4ccsc4c32)CC1 [Example 89, N-({trans-4-[2-(Cyanomethyl)-1H-imidazo[4,5-d]thieno[3,2-b]pyridin-1-yl]cyclohexyl}methyl)propanamide] | >10 |
| N#CCc1nc2cnc3ccsc3c2n1[C@H]1CC[C@H](CC#N)CC1 [Example 90, {1-[trans-4-(Cyanomethyl)cyclohexyl]-1H-imidazo[4,5-d]thieno[3,2-b]pyridin-2-yl}acetonitrile] | >10 |
| N#CC[C@H]1CC[C@H](n2c(CO)nc3cnc4ccsc4c32)CO1 [Example 91, {(2R,5S)-5-[2-(Hydroxymethyl)-1H-imidazo[4,5-d]thieno[3,2-b]pyridin-1-yl]tetrahydro-2H-pyran-2-yl}acetonitrile] | >10 |
| ((1R,2R,4S)-2-Hydroxy-4-{2-[(1R)-1-hydroxyethyl]-1H-imidazo[4,5-d]thieno[3,2-b]pyridin-1-yl}cyclohexyl)acetonitrile and ((1S,2S,4R)-2-hydroxy-4-{2-[(1R)-1-hydroxyethyl]-1H-imidazo[4,5-d]thieno[3,2-b]pyridin-1-yl}cyclohexyl)acetonitrile [36 (first peak)] | >10 |

Results, then the compound that gave them:

| JAK2/JAK1 | Compound |
| --- | --- |
| >10 | CC(C)OC(=O)NC[C@H]1CC[C@H](n2c([C@@H](C)O)nc3cnc4ccsc4c32)CO1 [Example 76, Isopropyl [((2R,5S)-5-{2-[(1R)-1-hydroxyethyl]-1H-imidazo[4,5-d]thieno[3,2-b]pyridin-1-yl}tetrahydro-2H-pyran-2-yl)methyl]carbamate] |
| >10 | COC(=O)NC[C@H]1CC[C@H](n2c([C@@H](C)O)nc3cnc4ccsc4c32)CC1 [Example 78, Methyl [(trans-4-{2-[(1R)-1-hydroxyethyl]-1H-imidazo[4,5-d]thieno[3,2-b]pyridin-1-yl}cyclohexyl)methyl]carbamate] |
| >10 | CC(=O)NC[C@H]1CC[C@H](n2c([C@@H](C)O)nc3cnc4ccsc4c32)CC1 [Example 79, N-[(trans-4-{2-[(1R)-1-Hydroxyethyl]-1H-imidazo[4,5-d]thieno[3,2-b]pyridin-1-yl}cyclohexyl)methyl]acetamide] |
| >10 | C[C@@H](O)c1nc2cnc3ccsc3c2n1[C@H]1CC[C@H](CNS(C)(=O)=O)CC1 [Example 80, N-[(trans-4-{2-[(1R)-1-Hydroxyethyl]-1H-imidazo[4,5-d]thieno[3,2-b]pyridin-1-yl}cyclohexyl)methyl]methanesulfonamide] |
| >10 | C[C@@H](O)c1nc2cnc3ccsc3c2n1[C@H]1CC[C@H](CNC(=O)N(C)C)CC1 [Example 81, N′-[(trans-4-{2-[(1R)-1-Hydroxyethyl]-1H-imidazo[4,5-d]thieno[3,2-b]pyridin-1-yl}cyclohexyl)methyl]-N,N-dimethylurea] |
| >10 | CCOC(=O)NC[C@H]1CC[C@H](n2c([C@@H](C)O)nc3cnc4ccsc4c32)CC1 [Example 82, Ethyl [(trans-4-{2-[(1R)-1-hydroxyethyl]-1H-imidazo[4,5-d]thieno[3,2-b]pyridin-1-yl}cyclohexyl)methyl]carbamate] |
| >10 | CCCOC(=O)NC[C@H]1CC[C@H](n2c([C@@H](C)O)nc3cnc4ccsc4c32)CC1 [Example 83, Propyl [(trans-4-{2-[(1R)-1-hydroxyethyl]-1H-imidazo[4,5-d]thieno[3,2-b]pyridin-1-yl}cyclohexyl)methyl]carbamate] |
| >10 | CC(C)OC(=O)NC[C@H]1CC[C@H](n2c([C@@H](C)O)nc3cnc4ccsc4c32)CC1 [Example 84, Isopropyl [(trans-4-{2-[(1R)-1-hydroxyethyl]-1H-imidazo[4,5-d]thieno[3,2-b]pyridin-1-yl}cyclohexyl)methyl]carbamate] |
| >10 | C[C@@H](O)c1nc2cnc3ccsc3c2n1[C@H]1CC[C@H](CNC(=O)OC2CCOC2)CC1 (stereo partly drawn) [Example 85, Tetrahydrofuran-3-yl [(trans-4-{2-[(1R)-1-hydroxyethyl]-1H-imidazo[4,5-d]thieno[3,2-b]pyridin-1-yl}cyclohexyl)methyl]carbamate] |
| >10 | CC(C)OC(=O)NC[C@H]1CC[C@H](n2c(CC#N)nc3cnc4ccsc4c32)CC1 [Example 88, Isopropyl({trans-4-[2-(cyanomethyl)-1H-imidazo[4,5-d]thieno[3,2-b]pyridin-1-yl]cyclohexyl}methyl)carbamate] |
